Results: article PMC6916168, “Multifunctional Glycoconjugates for Recruiting Natural Antibodies against Cancer Cells” (Chemistry (Weinheim an Der Bergstrasse, Germany), 2019)

Molecular target: human anti-Rha IgM
Assay: Competitive ELISA: inhibition of human anti-Rha IgM binding to PAA-Rha coated wells
Conditions: indirect competitive ELISA; human serum 20 %; PAA-Rha coating 5 μg mL^−1; 1 h at 37 °C; Alexa-Fluor488 goat anti-human IgM (1:400), fluorescence Ex 488/Em 530 nm; average of three independent experiments; read-out: IC50, inhibition of binding of human anti-Rha IgM to Rha coated wells (monovalent control)
Protocol: We next performed enzyme‐linked immunosorbent assay (ELISA)‐type studies to evaluate the ability of glycoconjugates 3 and 6 to bind natural Abs. Microtiter plates were first coated with a commercial Rha‐functionalized poly[N‐(2‐hydroxyethyl)acrylamide] polymer (PAA‐Rha) and incubated with human serum, a source of anti‐Rha antibodies, then fluorescent goat anti‐human IgM and IgG. […] This observation is in good agreement with previous studies showing strong ratio variations of circulating antibodies in human sera.15, 16 A competitive assay was next performed with glycoconjugates 3 and 6 as inhibitors and Rha as the monovalent control (Figure 1). […]
The ability of the ABMs to recruit anti‐Rha antibodies present in human serum (HS) was evaluated by an indirect competitive ELISA binding study. […] The fluorescence has been measured by using an Omega BMG LABTECH plate reader (Ex: 488 nm/ Em: 530 nm). The percentage of binding inhibition of the human anti‐Rha IgM antibody to the rhamnose‐coated microplate was calculated by using the formula: inhibition (%)=((F max−F)/F max)×100. F max corresponds to the mean value of the higher fluorescence limit reached in the dilution series of each rhamnose conjugate whereas F is the fluorescence red for each concentration of the compound tested. The fluorescence values used in this formula were an average of triplicate experiments. […]

C[C@H](O)[C@H](O)[C@@H](O)[C@@H](O)C=O [Rha, L‐rhamnose]
IC50: 1200 µM
